Patent US8452543B2, “High throughput screening for antimicrobial dosing regimens” (priority 2005, dated 2013)
“And” between values parts separate entries of the source, which are not always exact repeats. Identical values can stand only once.

Tests used:
P. aeruginosa ATCC 27853 [1] = assay: MIC/MBC, modified macrobroth dilution; format: cell-based, Pseudomonas aeruginosa; conditions: P. aeruginosa isolate (PA 27853)
Procedure: The final concentration of bacteria in each macrobroth dilution tube was approximately 5×10^5 cfu/ml of Ca-MHB. Serial twofold dilutions of meropenem were used. […] Samples (50 μl) from clear tubes and the cloudy tube with the highest drug concentration were plated on Mueller-Hinton agar (MHA) plates (Hardy Diagnostics, Santa Maria, Calif.). […] Drug carry-over effect was assessed by visual inspection of the distribution of colonies on media plates. The studies were conducted in duplicate and repeated at least once on a separate day.

[2] = test system: S. aureus ATCC 29213 and clinical isolates 55, 60, 25, 62; assay: MIC/MBC of S. aureus isolates to gentamicin; format: cell-based, Staphylococcus aureus
Procedure: Minimum inhibitory concentration (MIC)/minimum bactericidal concentration (MBC) were determined in Ca-MHB using a modified macrobroth dilution method as described by the CLSI (10). The final concentration of bacteria in each macrobroth dilution tube was approximately 5×10^5 cfu/ml of Ca-MHB. […] Samples (50 μl) from clear tubes and the cloudy tube with the highest drug concentration were plated on Mueller-Hinton agar (MHA) plates (Hardy Diagnostics, Santa Maria, Calif.). […] Drug carry-over effect was assessed by visual inspection of the distribution of colonies on media plates. The studies were conducted in duplicate and repeated at least once on a separate day. […]

[3] = test system: S. aureus ATCC 29213 and clinical isolates 55, 60, 25, 62; assay: Time-kill studies and pharmacodynamic modeling, gentamicin; format: cell-based, Staphylococcus aureus
Procedure: Time-kill studies were conducted with different and escalating meropenem concentrations. […] An overnight culture of the isolate was diluted 30-fold with pre-warmed Ca-MHB and incubated further at 35 8 C until reaching late log phase growth. The bacterial suspension was diluted with Ca-MHB accordingly based on absorbance at 630 nm; 15 mL of the suspension was transferred to 50 mL sterile conical flasks each containing 1 mL of an antimicrobial agent solution at 16 the target concentration. The final concentration of the bacterial suspension in each flask was 1×10^8 cfu/mL. The high inoculum used was to simulate the bacterial load in severe infection, and to allow resistant sub-population(s) to be present at baseline. The experiment was conducted for 24 h in a shaker water bath set at 35 8 C. Serial samples in duplicate were obtained from each flask over 24 h, at 0 (baseline), 2, 4, 8, 12, and 24 h, to characterize the effect of various meropenem concentrations on the total bacterial population. Prior to culturing the bacteria quantitatively, the bacterial samples (0.5 mL) were centrifuged at 10000 g for 15 min, and reconstituted with sterile normal saline to their original volumes in order to minimize drug carry-over effect. Total bacterial populations were quantified by spiral plating 10 serial dilutions of the samples ([…]) onto MHA plates. The media plates were incubated in a humidified incubator (35 8 C) for 18-24 h, and the bacterial density from each sample was determined by CASBA-4 colony scanner/software (Spiral Biotech, Bethesda, Md., USA).
In contrast to the conventional approach in which the final observed effects are modelled, information over time was utilized to develop a dynamic model system that would capture bacterial growth/killing rates. The starting point was a mathematical model describing the time course of bacterial burden [biological response, N(t)] under the influence of various antimicrobial agent concentrations C(t). The rate of change of bacteria over time was expressed as the difference between the intrinsic bacterial growth rate and the kill rate provided by the antimicrobial agent (Eq. 35). Based on previous studies, a linear bacterial growth rate was adopted. Additional model parameters were used to account for other physiological phenomena such as contact inhibition (using a maximum population size) and non-linear (sigmoidal) kill rate to account for target site saturation. Regrowth was attributed to adaptation, which was explicitly modelled as increase in the concentration necessary to achieve 50% maximal kill rate (C50k), using a saturable function of antimicrobial agent selective pressure (both meropenem concentration and time) (Eq. 36).
Time-kill modeling was performed for S. Aureus and gentamicin as for P. aeruginosa according to procedures and dynamic growth modeling in Examples 2-3.

S. aureus ATCC 29213 = assay: Hollow-fiber infection model, gentamicin; format: cell-based, Staphylococcus aureus
Procedure: The computer simulations were compared to experimental data from an in-vitro hollow fiber infection model with similar antimicrobial agent exposures (20). Basically the drug was injected directly into the central reservoir to achieve the peak concentration desired. Fresh (drug-free) growth medium (Ca-MHB) was continuously infused from the diluent reservoir into the central reservoir to dilute the drug in order to simulate drug elimination in humans. […] Bacteria were inoculated into the extracapillary compartment of the hollow-fiber cartridge (Fibercell Systems, Inc., Frederick, Md.); they are confined in the extracapillary compartment, but are exposed to the fluctuating drug concentration in the central reservoir by means of an internal circulatory pump in the bioreactor loop. The optional absorption compartment of the system was not used.

P. aeruginosa ATCC 27853 [4] = assay: Time-kill studies and best-fit model, gentamicin; format: cell-based, Pseudomonas aeruginosa; conditions: PA 27853
Procedure: A clinical relevant concentration range of gentamicin (from 0-32 mg/l) was used. […] The data were used as inputs to derive the best-fit model parameter estimates, as previously described (24, 17). The baseline inoculum (10^7 CFU/ml) was deemed to be dense enough to constitute a heterogeneous bacterial population. […] In Table 5: PA—P. aeruginosa, AB—A. baumannii, Kg—growth rate constant for bacterial population, Nmax—maximum population size, Kk—maximal kill rate constant for bacterial population, C50k—concentration to achieve 50% of maximal kill rate for bacterial population, H—sigmoidicity constant for bacterial population, β—maximal adaptation, and τ—rate of adaptation factor.

P. aeruginosa ATCC 27853 [5] = assay: Hollow fiber infection model, gentamicin; format: cell-based, Pseudomonas aeruginosa; conditions: Cmax/MIC of 30 every 12 h
Procedure: The media plates were incubated at 35° C. for up to 24 (total population) and 72 hours (sub-populations with reduced susceptibility), then bacterial density from each sample was enumerated visually. The theoretical lower limit of detection was 400 CFU/ml.

[6] = test system: amikacin resistant A. baumannii isolates; assay: Resistance confirmation, repeat susceptibility testing, amikacin; format: cell-based, Acinetobacter baumannii; conditions: amikacin resistant isolates
[7] = test system: gentamicin resistant P. aeruginosa isolates; conditions: after serial passage on drug-free plates and storage at −70° C.

gentamicin was tested, and the MBC (P. aeruginosa ATCC 27853 [1]) was 2 mg/l and 2/2 mg/l, the MIC (P. aeruginosa ATCC 27853 [1]) was 2 mg/l and 2/2 mg/l and the MBC ([2]; S. aureus strain 25) was 2 μ/mL. For the same substance, the MIC ([2]; S. aureus strain 25) was 1 μ/mL, the MBC ([2]; S. aureus strain 55) was 2 μ/mL and the MIC ([2]; S. aureus strain 55) was 0.5 μ/mL. The MBC ([2]; S. aureus strain 60) was 2 μ/mL, the MIC ([2]; S. aureus strain 60) was 1 μ/mL and the MBC ([2]; S. aureus strain 62) was 1/1 μ/mL. The MIC ([2]; S. aureus strain 62) was 1/1 μ/mL, the MBC ([2]; S. aureus strain ATCC 29213) was 2 μ/mL and the MIC ([2]; S. aureus strain ATCC 29213) was 1 μ/mL. For the same substance, the C50K ([3]; S. aureus strain 25) was 3.18 mg/L, the H ([3]; S. aureus strain 25) was 1.27 and the β ([3]; S. aureus strain 25) was 9,952. The τ ([3]; S. aureus strain 25) was 0.33 µL/min/mg, the C50K ([3]; S. aureus strain 55) was 2.58 mg/L and the H ([3]; S. aureus strain 55) was 1.07. For the same substance, the β ([3]; S. aureus strain 55) was 166.5, the τ ([3]; S. aureus strain 55) was 29.7 µL/min/mg and the C50K ([3]; S. aureus strain 60) was 1.05 mg/L. For the same substance, the H ([3]; S. aureus strain 60) was 1.52, the β ([3]; S. aureus strain 60) was 427.9 and the τ ([3]; S. aureus strain 60) was 46.2 µL/min/mg. It also gave a C50K ([3]; S. aureus strain 62) of 0.65 mg/L, an H ([3]; S. aureus strain 62) of 1.61 and a β ([3]; S. aureus strain 62) of 336.2. The τ ([3]; S. aureus strain 62) was 119 µL/min/mg, the C50K ([3]; S. aureus strain ATCC 29213) was 5.14 mg/L and the H ([3]; S. aureus strain ATCC 29213) was 0.75. For the same substance, the β ([3]; S. aureus strain ATCC 29213) was 14,620, the τ ([3]; S. aureus strain ATCC 29213) was 1.83 µL/min/mg and the “concentrations beyond which the rate of killing seemed to plateau” value ([3]; all five S. aureus isolates) was 4 to 8 times the MIC. For the same substance, the bactericidal activity ([3]; gentamicin concentration increased from 0.5 to 4 times the MIC) was “concentration dependent”, the “microbiologic response with repeated dosing” value (S. aureus ATCC 29213; 3-times-daily dosing regimen) was “sustained bacterial suppression over 5 days” and the “killing at 24 h” value (S. aureus ATCC 29213; both dosing regimens (once daily and 3 times daily, identical daily doses)) was “approximately 5 log”. The “microbiologic response with repeated dosing” value (S. aureus ATCC 29213; once-daily dosing regimen, over the next 4 days) was “regrowth was apparent”, the C50k (P. aeruginosa ATCC 27853 [4]) was 0.72 mg/L and the H (P. aeruginosa ATCC 27853 [4]) was 3.73. For the same substance, the Kk (P. aeruginosa ATCC 27853 [4]) was 4.68 h⁻¹, the β (P. aeruginosa ATCC 27853 [4]) was 42.54 and the τ (P. aeruginosa ATCC 27853 [4]) was 225 µL/min/mg. The microbial response (P. aeruginosa ATCC 27853 [5]) was “Sustained suppression of resistance emergence was achieved”, the cross-resistance [6] was “observed” and the stability of resistance [7] was “not stable”.
